In experiment [1] the target is T1, Sestrin2/GATOR2 interaction (Homo sapiens, UniProt P58004).
T1 construct: endogenous in cells; host or cells: Flag-WDR24 293T (HEK293T) cells
T1 sequence (P58004 1-480): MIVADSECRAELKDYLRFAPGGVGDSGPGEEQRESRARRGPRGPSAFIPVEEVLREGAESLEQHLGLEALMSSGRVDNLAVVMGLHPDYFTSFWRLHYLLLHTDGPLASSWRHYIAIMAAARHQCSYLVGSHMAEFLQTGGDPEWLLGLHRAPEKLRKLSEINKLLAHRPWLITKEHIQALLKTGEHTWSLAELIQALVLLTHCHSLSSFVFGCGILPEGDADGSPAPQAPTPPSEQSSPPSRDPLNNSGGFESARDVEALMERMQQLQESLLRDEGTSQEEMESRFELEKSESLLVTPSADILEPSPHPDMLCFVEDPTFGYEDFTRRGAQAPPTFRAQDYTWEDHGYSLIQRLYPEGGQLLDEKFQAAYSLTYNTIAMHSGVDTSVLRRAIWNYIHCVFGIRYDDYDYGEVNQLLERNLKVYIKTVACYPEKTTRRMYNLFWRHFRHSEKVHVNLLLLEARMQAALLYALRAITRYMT
Nature of the experiment: Lysate-based (cell-free) Sestrin2/GATOR2 protein-protein interaction assay. The class given is binding. The settings on record: added to immunoprecipitated Sestrin2/GATOR2 complexes from amino acid-starved flag-WDR24 HEK293T cells, 10 minutes. How it is done:
Flag-WDR24 293T cells were washed and placed in amino acid-free RPMI for 50 minutes. Cells were then rinsed once with ice-cold PBS and immediately lysed with Triton lysis buffer. The cell lysates were cleared by centrifugation at 13,200 rpm at 4°C in a microcentrifuge for 10 minutes. The anti-FLAG immunoprecipitations were performed as described above. Immunoprecipitated proteins (IPs) were resuspended in cytosolic buffer (40 mM HEPES pH 7.4, 140 mM KCl, 10 mM NaCl, 2.5 mM MgCl2, 0.1% TritonX-100) containing vehicle, NV-5297 or leucine at the indicated doses for 10 minutes. After compound incubation, IPs were collected by centrifugation, denatured, resolved by SDS-PAGE, and analyzed by immunoblotting.
Next, Sestrin2/GATOR2 protein-protein interactions in response to NV-5297 were measured using cell-free assays and in vitro. For this, HEK293T cells stably expressing flag-WDR24, a component of GATOR2 [44], were used. The cell-free assays utilized Sestrin2/GATOR2 complexes immunoprecipitated from amino acid-starved cells with an anti-flag antibody.

In another experiment the test system is mTORC1. The experiment can be described thus: mTORC1 activation (pS6K1 immunoblot) in leucine-starved HEK293T cells. The settings on record: HEK293T cells starved of leucine 50 minutes, treatment 10 minutes. It is filed as cell-based. How it is done: All cell lines were cultured in DMEM (Corning, #MT10013CV) supplemented with 10% heat-inactivated FBS (Gibco, #16140–071). All cell lines were maintained at 37°C and 5% CO2. For amino acid starvation, cells were rinsed once with and incubated Amino acid-free RPMI (US Biologicals, #R8999-04A) supplemented with 10% dialyzed FBS (Gibco, #26400044) for 50 min followed by treatment with NV-5297, leucine, or vehicle for 10 minutes. For leucine starvation, cells were rinsed once with and incubated in leucine-free DMEM (AthenaES, #0420) supplemented with 10% dialyzed FBS (Gibco, #26400044) for 50 minuted followed by treatment with NV-5297, leucine, or vehicle for 10 minutes.
(A) Activation of the mTORC1 pathway by NV-5297. […] (B) NV-5297 disrupts Sestrin2/GATOR2 in the in vitro Sesn2/WDR24 protein-protein interaction assay in a dose-dependent manner. […] Representative immunoblots of ^T389pS6K1 and quantification of the normalized level of ^T389pS6K1 from 8 independent experiments (F) show TORC1 activity in unedited HEK-293T cells, HEK-293T cells deficient for Sestrin 1 (Sesn1), 2 (Sesn2) and 3 (Sesn3) (D) or HEK-293T cells deficient for the GATOR1 component Nprl3 (E) after 50 minutes leucine starvation followed by the addition of vehicle, NV-5297 or leucine for 10 minutes. […]

In the next experiment the test system is mTORC1 pathway (pS6). Nature of the experiment: Isoprenaline cardiac stress: pS6 immunoblot of striatum and heart. It is filed as in vivo. The settings on record: N171-82Q mice under isoprenaline cardiac stress, 1 hour after oral dosing 160 mg/kg. On the procedure:
Specific regions of the brain and heart were homogenized using a Next Advance Bullet Blender Storm in Lysis Buffer (Cell lysis buffer: 1% Triton X-100, 50 mM HEPES pH 7.4, 100 mM sodium chloride, 2 mM EDTA, 10 mM Beta-glycerophosphate, 10 mM Sodium pyrophosphate, and 1 protease inhibitor) at 4°C. Lysates were cleared by centrifugation at 13,200 rpm at 4°C for 10 minutes. Equal amounts of total protein from each sample were denatured and, resolved by SDS-PAGE. Membranes were imaged using the LI-COR imaging system. Proteins levels are normalized to tubulin, actin or GAPDH levels and further normalized to vehicle treated mice for each tissue.
Fig 8 mTORC1 pathway activation following NV-5297 dosing and cardiac stress in the striatum but not heart. Representative immunoblot (left panels) of phosphorylated S6 (^S240/244pS6) and quantification of normalized level (right panels) for homogenized heart (A) and striatum (B) isolated 1 hour after oral dosing with NV-5297 (160 mg/kg) with a saline (n = 10) or isoprenaline (n = 6) implant or treated with vehicle and an isoprenaline implant (n = 6) normalized to loading control levels and further normalized to vehicle treated mice with a saline implant (n = 9). Data are presented as mean ± SEM. *P ≤ 0.05, **P ≤ 0.01, ***P ≤ 0.001 (Mixed-effects model with Sidak’s multiple comparisons test).
In general terms: Immunoblotting shows a protein as a band on a membrane.

Molecules are shown by their SMILES.

For `CC(C)(C[C@H](N)C(=O)O)C(F)(F)F` [NV-5297, (S)-2-amino-5,5,5-trifluoro-4,4-dimethylpentanoic acid], the “Sestrin2/GATOR2 interaction (GATOR2-associated Sestrin2)” value in experiment [1] is recorded as “disrupted the Sestrin2/GATOR2 interaction in a dose-dependent manner”. Moreover, the “mTORC1 activation measured by phosphorylated S6K1 (pS6K1 / p70S6K1)” value in the experiment with mTORC1 is on record as “activates mTORC1 in leucine-starved HEK293T cells in a dose-dependent manner”. Besides, in the experiment with mTORC1 pathway (pS6), the “pS6/S6 ratio in heart” value is “strong trend toward increased ratios” and the “pS6/S6 ratio in striatum” value was “increased pS6/S6 ratio”.

(Values after article PMC9423655, “Huntington’s disease phenotypes are improved via mTORC1 modulation by small molecule therapy” (PLoS ONE, 2022).)
